Where “and” joins values, the source holds several entries; their conditions need not be identical. Equal values may be shown once.
Columns and labels:
Plasmodium falciparum [1] = experiment: Hit confirmation in dose-response curve in NF54 pLDH assay, at 72h; type: functional, organism-based, Erythrocyte; design: timepoint 72 hour; conditions: Plasmodium falciparum, NF54, Erythrocyte, 72 h
[2] = (§1) Re-testing in dose-response curve in HepG2 cytotoxicity assay, at 72h; type: toxicity, cell-based, Homo sapiens; design: timepoint 72 hour; conditions: human, HepG2 cells
Plasmodium falciparum [3] = experiment: Re-testing in dose-response curve in 3D7 pLDH assay, at 72h; type: functional, organism-based, Erythrocyte; design: timepoint 72 hour
Plasmodium falciparum [4] = experiment: Hit confirmation in dose-response curve in NF54 nanoGlo assay, at 12h; type: functional, organism-based, Erythrocyte; design: timepoint 12 hour; conditions: Plasmodium falciparum, NF54, Erythrocyte, 12 h
[5] = Hit confirmation in dose-response curve in HepG2 cytotoxicity assay, at 72h; type: toxicity, cell-based, Homo sapiens; design: timepoint 72 hour; conditions: human, HepG2 cells
Plasmodium falciparum [6] = experiment: Hit confirmation in dose-response curve in NF54 nanoGlo assay, at 72h; type: functional, organism-based, Erythrocyte; design: timepoint 72 hour; conditions: Plasmodium falciparum, NF54, Erythrocyte, 72 h
Plasmodium falciparum [7] = experiment: Hit confirmation in dose-response curve in Dd2 pLDH assay, at 72h; type: functional, organism-based, Erythrocyte; design: timepoint 72 hour; conditions: Plasmodium falciparum, Dd2, Erythrocyte, 72 h
Plasmodium falciparum [8] = experiment: Re-testing in dose-response curve in Dd2 pLDH assay, at 72h; type: functional, organism-based, Erythrocyte; design: timepoint 72 hour
HepG2 = experiment: as §1; type: toxicity, cell-based, Homo sapiens; design: timepoint 72 hour; conditions: hepg2
[9] = Plasmodium falciparum, 3D7, Erythrocyte, 72 h
[10] = Plasmodium falciparum, Dd2, Erythrocyte, 72 h

| SMILES | IC50 (Plasmodium falciparum [1]) | IC50 (Plasmodium falciparum [3]; [9]) | IC50 (Plasmodium falciparum [3]; erythrocyte) | IC50 (Plasmodium falciparum [4]) | IC50 (Plasmodium falciparum [6]) | IC50 (Plasmodium falciparum [7]) | IC50 (Plasmodium falciparum [8]; [10]) | IC50 (Plasmodium falciparum [8]; erythrocyte) | IC50 at 72 h [2] | IC50 at 72 h [5] | IC50 (HepG2) |
| --- | --- | --- | --- | --- | --- | --- | --- | --- | --- | --- | --- |
| CN1CCN(CCCCNC2CC3CCC(C2)N3Cc2ccccc2)CC1 (stereo not given) | 3.02 µM | – | 1.08 µM | > 10 µM | 3.02 µM | 1.83 µM | – | – | – | > 10 µM | 22.8 µM and > 8.33 µM |
| CN([C@@H](c1ccccc1)c1ccccc1Br)S(=O)(=O)c1c[nH]c2ncccc12 | 9.77 µM | – | – | > 10 µM | 7.08 µM | 7.41 µM | – | – | – | > 10 µM | – |
| Cc1cc(NC[C@H](O)COc2ccc(F)cc2)nc2ccccc12 | 6.92 µM | – | – | 4.17 µM | 2.19 µM | 4.07 µM | – | – | – | > 10 µM | – |
| CCN1CCN(c2ccc(CNCc3cccc(O)c3)cc2F)CC1 | 3.39 µM | – | – | 8.91 µM | 1.95 µM | 3.89 µM | – | – | – | > 10 µM | – |
| CCN1CCC[C@H](Nc2cccc(-n3ccnc3)n2)C1 | 4.37 µM | – | – | 7.08 µM | 3.63 µM | 3.8 µM | – | – | – | > 10 µM | – |
| CN1CCN(CCNC2CCN3CCCC3C2)C(c2ccccc2)C1 (stereo not given) | 4.27 µM | – | – | > 10 µM | 4.17 µM | 3.8 µM | – | – | – | > 10 µM | – |
| FC(F)(F)c1ccc(-c2c(-c3ccccc3)ncn2Cc2ncn[nH]2)cc1 | > 10 µM | – | – | 2.75 µM | 6.92 µM | > 10 µM | – | – | – | > 10 µM | – |
| Cc1cc(N2CCC(NC3CCNC(c4ccccc4)C3)CC2)nc(C)n1 (stereo not given) | 9.12 µM | – | – | 10.2 µM | 4.37 µM | 6.17 µM | – | – | – | > 10 µM | – |
| Cc1ccc2nc(CCCNC3CCN(c4cc(C)nc(N)n4)CC3)oc2c1 | 3.31 µM | – | – | 8.91 µM | 3.89 µM | 3.47 µM | – | – | – | > 10 µM | – |
| O[C@@]1(c2c[nH]nn2)CCN(c2ccnc3cc(Cl)ccc23)C1 | 5.13 µM | – | – | 5.13 µM | 2.75 µM | 3.8 µM | – | – | – | > 10 µM | – |
| CNc1nc(C)cc(N[C@@H]2COc3ccccc3C2)n1 | 5.25 µM | – | – | > 10 µM | 3.39 µM | 3.8 µM | – | – | – | > 10 µM | – |

Further lines, with some results ahead:

| IC50 (Plasmodium falciparum [1]) | IC50 (Plasmodium falciparum [3]; [9]) | IC50 (Plasmodium falciparum [3]; erythrocyte) | IC50 (Plasmodium falciparum [4]) | IC50 (Plasmodium falciparum [6]) | IC50 (Plasmodium falciparum [7]) | IC50 (Plasmodium falciparum [8]; [10]) | IC50 (Plasmodium falciparum [8]; erythrocyte) | SMILES | IC50 at 72 h [2] | IC50 at 72 h [5] | IC50 (HepG2) |
| --- | --- | --- | --- | --- | --- | --- | --- | --- | --- | --- | --- |
| 1.32 µM | > 8.33 µM | 14.8 µM and 12.7 µM and 15.9 µM | > 10 µM | 0.812 µM | 0.708 µM | – | – | CN(C)C1CCN(CCN[C@H]2CCc3ccc(F)cc32)CC1 | > 25 µM | > 10 µM | – |
| 2.63 µM | – | 1.63 µM and 0.618 µM and 0.631 µM | 9.12 µM | 3.24 µM | 1.82 µM | 1.58 µM | 1.78 µM and 1.6 µM | CC1(N2CCC2)CCC(NC[C@H]2CCN(Cc3ccccc3)C2)CC1 (stereo not given in full) | – | > 10 µM | – |
| 1.2 µM | 0.68 µM | 0.75 µM and 0.903 µM | 2.45 µM | 1.41 µM | 1.23 µM | – | – | Cc1cnccc1N1CCCN(Cc2ccccc2OCCN2CCN(C)CC2)CC1 | – | > 10 µM | – |
| 1.91 µM | 0.714 µM | 0.859 µM | 2.88 µM | 1.62 µM | 1.86 µM | – | 1.59 µM | c1ccc(-c2ccnc(C3CCN(CC45CNCC4C5)CC3)n2)cc1 (stereo not given) | – | > 10 µM | – |
| 0.562 µM | – | – | 0.933 µM | 0.575 µM | 0.525 µM | – | – | CCOc1cc2nccc(N3C[C@H]4CN(C)C[C@H]4C3)c2cc1OCC | – | > 10 µM | – |
| 1.48 µM | – | – | > 10 µM | 1.17 µM | 2.04 µM | – | – | Cc1cc(O)c(Cl)cc1-c1cccc2c(N)ccnc12 | – | > 10 µM | – |
| 1.41 µM | – | – | 2.88 µM | 1.15 µM | 1.29 µM | – | – | Cc1ccccc1-c1cccc(N2CCC(NCC3CCNCC3)CC2)c1 | – | 5.5 µM | – |
| 3.31 µM | – | – | > 10 µM | 1.23 µM | 2.69 µM | – | – | Nc1ccnc2ccc(-c3ccc(C(=O)NCC4CCOCC4)cc3)cc12 | – | > 10 µM | – |
| 1.38 µM | – | – | 2.95 µM | 1.7 µM | 1.38 µM | 2.3 µM | 3.11 µM | COc1ccc(-c2cncc(C(=O)NCC3CCN(CCN(C)C)CC3)c2)cc1 | – | > 10 µM | – |
| 1.74 µM | – | – | 3.09 µM | 1.51 µM | 1.62 µM | – | – | CCN(Cc1[nH]c2ccc(Cl)cc2c1C)CC1CCN(C2CCN(C)CC2)CC1 | – | > 10 µM | – |
| 3.02 µM | – | – | 3.16 µM | 2.04 µM | 2.45 µM | – | – | Cc1ccc2nc(NC[C@H]3CCN(C4CC4)C3)cc(C)c2c1 | – | > 10 µM | – |
| 0.437 µM | – | – | 1.1 µM | 0.55 µM | 0.437 µM | – | – | CN(CCCn1ccnc1)c1ccnc2cc(Br)ccc12 | – | > 10 µM | – |
| 2.75 µM | – | – | 3.8 µM | 1.82 µM | 2.63 µM | – | – | Clc1ccc2[nH]c3c(c2c1)CCCC3NC1CCN(C2CCOC2)CC1 (stereo not given) | – | 10 µM | – |
